Source: ChEMBL document CHEMBL1154479, “Newer GABA derivatives for the treatment of epilepsy including febrile seizures: a bioisosteric approach” (Eur J Med Chem, 2008)
The source made the active and inactive calls. No cut-off for these calls is given here.

Columns and labels:
Mus musculus [1] = assay: Neurotoxicity in Swiss albino mouse assessed as inability of animal to maintain equilibrium on the rod for at least 1 min at 300 mg/kg, ip after 4 hrs by rotarod test; format: toxicity, organism-based; design: dose 300 mg/kg, route intraperitoneal; conditions: in vivo
Mus musculus [2] = assay: Anticonvulsant activity in Swiss albino mouse assessed as inhibition of maximal electroshock-induced seizures at 300 mg/kg, ip administered 30 mins before electroshock measured after 0.5 hrs post electroshock; format: functional, organism-based; design: dose 300 mg/kg
Rattus norvegicus = assay: Anticonvulsant activity in Wistar rat assessed as protection against hyperthermia-induced seizures at 100 mg/kg, ip relative to control; format: functional; conditions: route intraperitoneal
Mus musculus [3] = assay: Anticonvulsant activity in Swiss albino mouse assessed as inhibition of subcutaneous strychnine-induced seizures at 300 mg/kg, ip administered 30 mins before STY challenge measured after 4 hrs post STY challenge; format: functional, organism-based; design: dose 300 mg/kg
Mus musculus [4] = assay: Anticonvulsant activity in Swiss albino mouse assessed as inhibition of subcutaneous pentylenetetrazole-induced seizures at 300 mg/kg, ip administered 30 mins before PTZ challenge measured after 0.5 hrs post PTZ challenge; format: functional, organism-based; design: dose 300 mg/kg
Mus musculus [5] = assay: Neurotoxicity in ip dosed Swiss albino mouse assessed as inability of animal to maintain equilibrium on the rod for at least 1 min after 0.5 hrs by rotarod test; format: toxicity, organism-based; conditions: in vivo
Mus musculus [6] = assay: Anticonvulsant activity in Swiss albino mouse assessed as inhibition of subcutaneous pentylenetetrazole-induced seizures at 300 mg/kg, ip administered 30 mins before PTZ challenge measured after 4 hrs post PTZ challenge; format: functional, organism-based; design: dose 300 mg/kg
Mus musculus [7] = assay: Anticonvulsant activity in ip dosed Swiss albino mouse assessed as inhibition of subcutaneous strychnine-induced seizures administered 30 mins before STY challenge measured after 0.5 hrs post STY challenge; format: functional
Mus musculus [8] = assay: Anticonvulsant activity in Swiss albino mouse assessed as inhibition of subcutaneous strychnine-induced seizures at 300 mg/kg, ip administered 30 mins before STY challenge measured after 0.5 hrs post STY challenge; format: functional, organism-based; design: dose 300 mg/kg
Mus musculus [9] = assay: Neurotoxicity in Swiss albino mouse assessed as inability of animal to maintain equilibrium on the rod for at least 1 min at 300 mg/kg, ip after 0.5 hrs by rotarod test; format: toxicity, organism-based; design: dose 300 mg/kg, route intraperitoneal; conditions: in vivo
Mus musculus [10] = assay: Anticonvulsant activity in Swiss albino mouse assessed as inhibition of subcutaneous picrotoxin-induced seizures at 300 mg/kg, ip administered 30 mins before PIC challenge measured after 0.5 hrs post PIC challenge; format: functional, organism-based; design: dose 300 mg/kg
Mus musculus [11] = assay: Anticonvulsant activity in Swiss albino mouse assessed as inhibition of subcutaneous picrotoxin-induced seizures at 300 mg/kg, ip administered 30 mins before PIC challenge measured after 4 hrs post PIC challenge; format: functional, organism-based; design: dose 300 mg/kg
Mus musculus [12] = assay: Anticonvulsant activity in ip dosed Swiss albino mouse assessed as inhibition of subcutaneous pentylenetetrazole-induced seizures administered 30 mins before PTZ challenge measured after 0.5 hrs post PTZ challenge; format: functional
Mus musculus [13] = assay: Anticonvulsant activity in ip dosed Swiss albino mouse assessed as inhibition of subcutaneous strychnine-induced seizures administered 30 mins before STY challenge measured after 4 hrs post STY challenge; format: functional
Mus musculus [14] = assay: Neurotoxicity in ip dosed Swiss albino mouse assessed as inability of animal to maintain equilibrium on the rod for at least 1 min after 4 hrs by rotarod test; format: toxicity, organism-based; conditions: in vivo
Mus musculus [15] = assay: Anticonvulsant activity in ip dosed Swiss albino mouse assessed as inhibition of maximal electroshock-induced seizures administered 30 mins before electroshock measured after 0.5 hrs post electroshock; format: functional
Mus musculus [16] = assay: Anticonvulsant activity in ip dosed Swiss albino mouse assessed as inhibition of subcutaneous picrotoxin-induced seizures administered 30 mins before PIC challenge measured after 0.5 hrs post PIC challenge; format: functional
Mus musculus [17] = assay: Anticonvulsant activity in ip dosed Swiss albino mouse assessed as inhibition of subcutaneous picrotoxin-induced seizures administered 30 mins before PIC challenge measured after 4 hrs post PIC challenge; format: functional
Mus musculus [18] = assay: Anticonvulsant activity in ip dosed Swiss albino mouse assessed as inhibition of subcutaneous pentylenetetrazole-induced seizures administered 30 mins before PTZ challenge measured after 4 hrs post PTZ challenge; format: functional

Row | Structure (SMILES) | Activity (Mus musculus [1]) | Activity (Mus musculus [2]) | Activity (Rattus norvegicus) [%] | Activity (Mus musculus [3]) | Activity (Mus musculus [4]) | Activity (Mus musculus [5]) [mg/kg] | Activity (Mus musculus [6]) | Activity (Mus musculus [7]) [mg/kg] | Activity (Mus musculus [8]) | Activity (Mus musculus [9]) | Activity (Mus musculus [10]) | Activity (Mus musculus [11]) | Activity (Mus musculus [12]) [mg/kg] | Activity (Mus musculus [13]) [mg/kg] | Activity (Mus musculus [14]) [mg/kg] | Activity (Mus musculus [15]) [mg/kg] | Activity (Mus musculus [16]) [mg/kg] | Activity (Mus musculus [17]) [mg/kg] | Activity (Mus musculus [18]) [mg/kg]
1 | O=C(O)CCCNC(=S)N/N=C(\c1ccccc1)c1ccc(Br)cc1 | Non-toxic | inactive | 19 | inactive | inactive | 300 | inactive | 100 | – | – | – | – | – | – | – | – | – | – | –
2 | O=C(O)CCCNC(=S)NN=C1CCCC1 | Non-toxic | inactive | 71 | inactive | – | – | inactive | – | inactive | Non-toxic | inactive | inactive | 100 | – | – | – | – | – | –
3 | O=C(O)CCCNC(=S)N/N=C/c1ccc(Cl)cc1 | Non-toxic | inactive | 49 | – | – | 100 | inactive | 300 | – | – | – | – | 100 | 300 | – | – | – | – | –
4 | O=C1NC(=O)C(c2ccccc2)(c2ccccc2)N1 [PHENYTOIN] | – | – | – | inactive | inactive | 100 | inactive | – | inactive | – | inactive | inactive | – | – | 100 | 30 | – | – | –
5 | C/C(=N\NC(=S)NCCCC(=O)O)c1ccccc1 | Non-toxic | inactive | 90 | inactive | – | – | inactive | – | inactive | Non-toxic | – | – | 300 | – | – | – | 100 | 100 | –
6 | C/C(=N\NC(=S)NCCCC(=O)O)c1ccc(C)cc1 | Non-toxic | inactive | 80 | inactive | inactive | – | inactive | – | inactive | Non-toxic | inactive | inactive | – | – | – | – | – | – | –
7 | C/C(=N\NC(=S)NCCCC(=O)O)c1cccc(N)c1 | Non-toxic | inactive | 27 | inactive | inactive | – | inactive | – | inactive | Non-toxic | – | – | – | – | – | – | 300 | 300 | –
8 | O=C(O)CCCNC(=S)NN=C(Cc1ccccc1)Cc1ccccc1 | – | inactive | 73 | inactive | inactive | – | inactive | – | inactive | Non-toxic | – | inactive | – | – | 300 | – | – | – | –
9 | CCC1(C)CC(=O)NC1=O (configuration not stated) [ETHOSUXIMIDE] | Non-toxic | inactive | – | inactive | – | – | inactive | – | inactive | Non-toxic | inactive | inactive | 300 | – | – | – | – | – | –
10 | O=C(O)CCCNC(=S)NN=C(c1ccccc1)c1ccccc1 | Non-toxic | – | 83 | inactive | inactive | – | inactive | – | inactive | Non-toxic | – | – | – | – | – | 300 | – | – | –
11 | O=C(O)CCCNC(=S)N/N=C/c1ccccc1O | Non-toxic | inactive | 92 | inactive | – | – | inactive | 100 | – | Non-toxic | – | – | 100 | – | – | – | – | – | –
12 | C/C(=N\NC(=S)NCCCC(=O)O)c1ccc([N+](=O)[O-])cc1 | – | inactive | 46 | inactive | inactive | 100 | inactive | – | inactive | – | inactive | inactive | – | – | 100 | – | – | – | –
13 | NNC(=S)NCCCC(=O)O | – | – | 27 | inactive | inactive | 300 | inactive | – | inactive | – | inactive | inactive | – | – | 300 | 300 | – | – | –
14 | Nc1nnc(-c2cccc(Cl)c2Cl)c(N)n1 [LAMOTRIGINE] | – | – | 51 | inactive | – | 100 | inactive | – | inactive | – | inactive | inactive | 30 | – | 100 | 30 | – | – | –
15 | O=C(O)CCCNC(=S)NN=C1CCCCC1 | Non-toxic | inactive | 78 | inactive | inactive | – | inactive | – | inactive | Non-toxic | – | – | – | – | – | – | 300 | 300 | –
16 | O=C(O)CCCNC(=S)N/N=C/c1ccc([N+](=O)[O-])cc1 | Non-toxic | inactive | 85 | inactive | inactive | – | inactive | – | inactive | Non-toxic | – | – | – | – | – | – | 300 | 300 | –
17 | O=C(O)CCCNC(=S)N/N=C/c1cccc([N+](=O)[O-])c1 | Non-toxic | inactive | 51 | inactive | inactive | – | – | 300 | – | Non-toxic | – | – | – | – | – | – | 100 | 100 | 300
18 | O=C(O)CCCNC(=S)N/N=C1\C(=O)Nc2ccccc21 | Non-toxic | inactive | 92 | inactive | – | – | inactive | – | inactive | Non-toxic | – | – | 30 | – | – | – | 300 | 300 | –
19 | CN(C)c1ccc(/C=N/NC(=S)NCCCC(=O)O)cc1 | Non-toxic | inactive | 88 | – | inactive | – | inactive | 300 | – | Non-toxic | – | – | – | 300 | – | – | – | – | –
